Experimental data taken from patent US20260345573A1, “METHOD OF TREATMENT WITH ILOPERIDONE” (Vanda Pharmaceuticals Inc., priority 2023, published 2026).
Entries after “also recorded” stand apart in the source; their conditions may differ. One block for each compound: values may come before it.

How the values were obtained:
Type in all cases: in vivo, human
[1] = Studies 3201 and 3101 (Examples 1 and 2), conclusions on serum urate
Experimental: (§1) A multi-center, randomized, double-blind, placebo-controlled study is performed to evaluate the safety and efficacy of iloperidone for four (4) weeks in the treatment of patients with acute manic episodes associated with bipolar I disorder (“Study 3201”). Patients in the study are randomized to orally receive either iloperidone at a dose of 24 mg/day given in a divided dose as 12 mg twice daily (bid), or matched placebo.
(§2) A study is performed to evaluate the efficacy and safety of iloperidone compared with placebo and active control (ziprasidone) in subjects with acute schizophrenia (“Study 3101”). Patients are randomized to receive one of iloperidone at a dose of 24 mg/day given in a divided dose as 12 mg twice daily (bid), active comparator ziprasidone, or placebo. […] Uric acid results are converted to SI units using the conversion 1 mg/dL=59.5 μmol/L.

[2] = Study 3101: serum urate (uric acid) in subjects with acute schizophrenia, by SLC2A9 rs7442295 genotype
Experimental: as §2
Results are provided in Table 6 below, including an increase of 28.0 μmol/L for iloperidone compared to a decrease of 4.2 μmol/L in placebo groups.
Patient genotypes are obtained via a commercial 500k SNP Gene Chip Human Mapping Array. To test the hypothesis of altered urate serum levels in association with variants in SLC2A9, linear models for SLC2A9 variants are performed on urate at baseline levels (corrected for PCs, age, sex) followed by samples collected at end of study (EOS).

[3] = Study 3201: serum urate in patients with acute manic episodes associated with bipolar I disorder, by SLC2A9 rs7442295 genotype and sex; details: for LS Mean Change (SE) in serum urate from baseline: 24 mg/day oral (12 mg bid)
Experimental: as §1
These increases are illustrated in FIG. 1 using solid data points.
To test the hypothesis of altered urate serum levels in association with variants in the SLC2A9 gene, whole genome sequencing is conducted from blood samples, genotype status is obtained through standard data analysis, and linear models for SLC2A9 variants are performed on urate concentration in samples collected at baseline (corrected for PCs, age, sex) and samples collected at the end of the study (EOS).
As shown in FIGS. 3-4, the rs7442295 variant of interest has a statistically significant effect on iloperidone-induced change in serum urate levels from baseline to Day 28 in patients with bipolar disorder. FIG. 3 illustrates individual patient changes in serum urate (in μmol/L) from baseline to Day 28, grouped according to treatment group (iloperiodone or placebo) and carrier status for variant rs7442295, while FIG. 4 illustrates mean serum levels for at patient evaluations conducted at baseline and Day 28, separated according to treatment group (iloperidone or placebo) and patient carrier status for rs7442295. The significant interaction affecting change is particularly observed between genotype*sex*treatment (full model: Multiple R-squared: 0.09251, Adjusted R-squared: 0.07078, F-statistic: 4.256 on 8 and 334 DF, p=0.00006942).
This observation is statistically significant when comparing genotypes at BOS as well as when comparing GG with AG and AA genotypes between treatment and placebo group in both males and females combined. Table 2 (below) provides mean change from baseline to Day 28 by treatment group and carrier status for variant rs7442295, and Table 3 (below) provides LS mean change in serum urate from baseline to Day 28 evaluations for serum urate by treatment group and carrier status for variant rs7442295) (SD=standard deviation).

Increase in serum urate in G/G patients (in words) ([1]; genotype G/G, both studies): nearly twice as large
Serum urate at Day 0 (SE) ([2]; Day 0, iloperidone group, schizophrenia, n=300): 318.3 (73.19), 300 μmol/L
LS Mean Difference (95% CI) in serum urate change vs placebo ([2]; Day 14, schizophrenia): 18.4 (6.55. 29.93) μmol/L
LS Mean Change (SE) in serum urate from baseline ([2]; Day 14, 24 mg/day (12 mg bid), schizophrenia, n=276): 15.5 (58.85), 276 μmol/L
LS Mean Difference (95% CI) in serum urate change vs placebo ([2]; Day 28, genotype AA): 10.05 (14.90, 35.97) μmol/L
LS Mean Difference (95% CI) in serum urate change vs placebo ([2]; Day 28, genotype AG): 30.02 (−2.86, 57.63) μmol/L
LS Mean Difference (95% CI) in serum urate change vs placebo ([2]; Day 28, genotype GG): 52.4 (0.33, 104.45) μmol/L
Fold greater increase from baseline in blood uric acid compared to placebo ([2]; Day 28, schizophrenia): roughly 4 fold
LS Mean Difference (95% CI) in serum urate change vs placebo ([2]; Day 28, schizophrenia): 23.8 (9.16. 37.96) μmol/L
LS Mean Change (SE) in serum urate from baseline ([2]; Day 28, iloperidone 24 mg/day (12 mg bid), schizophrenia, n=206): 28.0 (4.05), 206 μmol/L
LS Mean Change (SE) in serum urate from baseline ([2]; Day 28, iloperidone 24 mg/day (12 mg bid), schizophrenia, n=206, listed as iloperidone): 28.0 µmol/L
Percentage of patients with serum urate above ULN ([3]; Baseline, female, genotype AA (4/42), ULN 394 μmol/l): 9.5%
Percentage of patients with serum urate above ULN ([3]; Baseline, female, genotype AG (3/39), ULN 394 μmol/l): 7.7%
Percentage of patients with serum urate above ULN ([3]; Baseline, female, genotype GG (0/7), ULN 394 μmol/l): 0.0%
Serum urate at baseline (SE) ([3]; Baseline, iloperidone group, bipolar mania, n=206): 323.0 (77.13), 206 μmol/L
Percentage of patients with serum urate above ULN ([3]; Baseline, male, genotype AA (6/60), ULN 453 μmol/l): 10.0%
Percentage of patients with serum urate above ULN ([3]; Baseline, male, genotype AG (1/41), ULN 453 μmol/l): 2.4%
Percentage of patients with serum urate above ULN ([3]; Baseline, male, genotype GG (1/12), ULN 453 μmol/l): 8.3%
Percentage of patients with serum urate above ULN ([3]; Baseline, male, genotype GG (1/12), ULN 453 μmol/l, listed as iloperidone): about 8.3%
LS Mean Difference (95% CI) in serum urate change vs placebo ([3]; Day 7, bipolar mania): 1.3 (−9.29, 11.88) μmol/L
LS Mean Change (SE) in serum urate from baseline ([3]; Day 7, bipolar mania, n=199): −2.7 (−4.07), 199 μmol/L
LS Mean Difference (95% CI) in serum urate change vs placebo ([3]; Day 14, bipolar mania): 15.3 (4.50, 26.15) μmol/L
LS Mean Change (SE) in serum urate from baseline ([3]; Day 14, bipolar mania, n=173): 12.6 (−4.28), 173 μmol/L
LS Mean Difference (95% CI) in serum urate change vs placebo ([3]; Day 21, bipolar mania): 21.0 (8.91, 33.18) μmol/L
LS Mean Change (SE) in serum urate from baseline ([3]; Day 21, bipolar mania, n=157): 19.1 (−5.24), 157 μmol/L
LS Mean Change (SE) in serum urate from baseline ([3]; Day 28 (endpoint), bipolar mania, n=142): 27.2 (−4.93), 142 μmol/L
LS Mean Change (SE) in serum urate from baseline ([3]; Day 28 (endpoint), bipolar mania, n=142, listed as iloperidone): 27.2 µmol/L
Fold greater increase in serum urate from baseline compared to placebo ([3]; Day 28, bipolar mania): 4 fold
LS Mean Difference (95% CI) in serum urate change vs placebo ([3]; Day 28, bipolar mania): 27.1 (14.94, 39.20) μmol/L
LS Mean Difference (95% CI) in serum urate change vs placebo ([3]; Day 28, genotype AA, female): 27.85 (2.93, 52.76) μmol/L
LS Mean Difference (95% CI) in serum urate change vs placebo ([3]; Day 28, genotype AA, male): 35.52 (12.82, 58.22) μmol/L
LS Mean Difference in serum urate change vs placebo ([3]; Day 28, genotype AA, 95% CI (14.82, 49)): 31.91 µmol/L
LS Mean Difference (95% CI) in serum urate change vs placebo ([3]; Day 28, genotype AG, female): −7.9 (−34.82, 19.03) μmol/L
LS Mean Difference (95% CI) in serum urate change vs placebo ([3]; Day 28, genotype AG, male): 40.79 (14.61, 66.96) μmol/L
LS Mean Difference in serum urate change vs placebo ([3]; Day 28, genotype AG, 95% CI (−4.18, 33.86)): 14.84 µmol/L
LS Mean Difference (95% CI) in serum urate change vs placebo ([3]; Day 28, genotype GG, female): 3.08 (−50.97, 57.13) μmol/L
LS Mean Difference (95% CI) in serum urate change vs placebo ([3]; Day 28, genotype GG, male): 102.96 (48.93, 156.99) μmol/L
LS Mean Difference in serum urate change vs placebo ([3]; Day 28, genotype GG, 95% CI (18.91, 94.99)): 56.95 µmol/L
Mean change from baseline in serum urate ([3]; Day 28, 24 mg/day, all genotypes, bipolar mania): 33.4 µmol/L
LS Mean Difference (95% CI) in serum urate change vs placebo ([3]; EOS (LOCF), genotype AA, female): 15.97 (−6.71, 38.64) μmol/L
LS Mean Difference (95% CI) in serum urate change vs placebo ([3]; EOS (LOCF), genotype AA, male): 18.99 (−0.89, 38.86) μmol/L
LS Mean Difference (95% CI) in serum urate change vs placebo ([3]; EOS (LOCF), genotype AG, female): −1.4 (−25.85, 23.06) μmol/L
LS Mean Difference (95% CI) in serum urate change vs placebo ([3]; EOS (LOCF), genotype AG, male): 19.58 (−2.91, 42.08) μmol/L
LS Mean Difference (95% CI) in serum urate change vs placebo ([3]; EOS (LOCF), genotype GG, female): 4.54 (−50.43, 59.52) μmol/L
LS Mean Difference (95% CI) in serum urate change vs placebo ([3]; EOS (LOCF), genotype GG, male): 88.45 (38.7, 138.21) μmol/L
LS Mean Difference in serum urate change vs placebo ([3]; EOS, genotype AA, 95% CI (3.19, 33.28)): 18.23 µmol/L
LS Mean Difference in serum urate change vs placebo ([3]; EOS, genotype AG, 95% CI (−8.27, 25.48)): 8.61 µmol/L
LS Mean Difference in serum urate change vs placebo ([3]; EOS, genotype GG, 95% CI (18.68, 92.13)): 55.4 µmol/L
Increase in serum urate in G/G patients (in words) ([3]; genotype GG, bipolar mania): nearly twice as large
Fold increase in percentage of patients with high urate levels (above ULN) ([3]; male, genotype GG, baseline to end of study): approximately 4 fold
SMILES: COc1cc(C(C)=O)ccc1OCCCN1CCC(c2noc3cc(F)ccc23)CC1 [Iloperidone, 1-[4-[3-[4-(6-flouro-1,2-benzisoxazol-3-yl)-1-piperidinyl]propoxy]-3-methoxyphenyl]ethanone]
Effect on serum urate compared to placebo (in words) ([1]; bipolar disorder and schizophrenia): associated with increases in serum urate compared to placebo
Change from baseline in uric acid relative to ziprasidone arm (in words) ([2]; Day 28, schizophrenia): more than twice the change from baseline observed in the ziprasidone arm
Iloperidone-induced change in serum urate with GG genotype, by sex (in words) ([2]; genotype GG, male schizophrenia patients): particular pronounced in male schizophrenia patients
Effect on serum urate compared to placebo (in words) ([2]; schizophrenia, ANCOVA): statistically significant increase in serum urate
Effect on serum urate (in words) ([3]; bipolar mania, vs placebo): statistically significant increase in serum urate; also recorded: associated with increases in serum urate compared to placebo
Iloperidone-associated increase in serum urate in rs7442295-G/G individuals (in words) ([3]; genotype GG, bipolar mania): significant in individuals who are homozygous for the rs7442295 (G) allele
Serum urate relative to ULN in G/G individuals treated with iloperidone (in words) ([3]; genotype GG, especially males, ULN 453 (male), 394 (female) μmol/l): a significant number of individuals (particularly homozygous G/G males) exceed the upper limit of normal (ULN); also recorded: above ULN value in individuals that are homozygous (GG) for the rs7442295 (G) allele

LS mean change from baseline to endpoint in serum urate ([2]; ziprasidone active comparator arm, schizophrenia): 13.1 µmol/L
SMILES: O=C1Cc2cc(CCN3CCN(c4nsc5ccccc45)CC3)c(Cl)cc2N1 [ziprasidone]
Increase in serum urate relative to iloperidone (in words) ([2]; ziprasidone arm, schizophrenia): approximately half of that seen in with iloperidone treatment
